For two compounds, TGI results are on record in PubChem BioAssay (NCI).

SMILES strings stand for the structures.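 Results reflect a 48-hour exposure of cells in 96-well plates to compound at five concentrations. At the TGI there is no net growth.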 Bounds are passed on as bounds.

Test systems include MDA-MB-435; UACC-62 melanoma; 786-0 renal; OVCAR-5 ovarian; NCI/ADR-RES ovarian; OVCAR-3 ovarian; EKVX NSCLC; SK-OV-3 ovarian; UO-31 renal; U251 CNS; A549 NSCLC.
Test in all cases: NCI-60 cell line screen, 48 h

`CC(=O)c1ccc(Nc2nc3ccccc3c3occc23)cc1`: the TGI in the experiment with MDA-MB-435 was 9.69 µM; in the experiment with UACC-62 melanoma, 41.3 µM; in the experiment on 786-0 renal, 21.7 µM; with OVCAR-5 ovarian, greater than 100 µM; in the experiment on NCI/ADR-RES ovarian it was 58 µM; with OVCAR-3 ovarian it was 71.2 µM. The TGI with EKVX NSCLC is greater than 100 µM; with SK-OV-3 ovarian, 58.8 µM; with UO-31 renal, 96.4 µM; in the experiment on U251 CNS it was greater than 100 µM; with A549 NSCLC, greater than 100 µM.
In the case of `CC1=NC(=O)CNN1C1=NNC2(C(=O)N1)c1ccccc1-c1ccccc12`, the TGI in the experiment on MDA-MB-435, in the experiment with UACC-62 melanoma, with 786-0 renal, in the experiment with OVCAR-5 ovarian, with NCI/ADR-RES ovarian and with OVCAR-3 ovarian was greater than 100 µM in each case. The TGI with EKVX NSCLC, in the experiment with SK-OV-3 ovarian, in the experiment with UO-31 renal, in the experiment with U251 CNS and in the experiment with A549 NSCLC was greater than 100 µM in each case.
